This note sets out measurements from patent US12552834B2, “Selective MENA binding peptides” (MASSACHUSETTS INSTITUTE OF TECHNOLOGY, priority 2021, dated 2026).

The structures appear in SMILES notation.

The subject of assay [1] is EVL Y63C, I26A and VASP W89Y, L15V. In words: BLI, binding to EVL and VASP hydrophobic core mutants. Background: In BLI a coated tip is dipped into the sample, and binding shifts an interference pattern.
For assay [2], the system named is VASP or EVL EVH1 domains. The assay is described as follows: BLI, paralog selectivity: ENAH versus VASP or EVL EVH1 domains. It is filed as binding. As to the method: Next, we examined whether residues flanking FP4 (SEQ ID NO:46) SLiMs impact paralog specificity.
All BLI experiments were performed with 2 replicates on an Octet Red96 instrument (ForteBio). Biotinylated, 6×-His-Sumo-peptide fusions purified in small scale were diluted into BLI buffer (PBS pH 7.4, 1% BSA, 0.1% Tween-20, 1 mM DTT) and immobilized onto streptavidin-coated tips (ForteBio) until loading reached a response level between 0.5-0.6 nm. The loaded tips were immersed in a solution of ENAH EVH1 domain at a relevant dilution series in BLI buffer at an orbital shake speed of 1000 rpm and run until the binding signal plateaued. ENAH-bound tips were subsequently placed into BLI buffer only for dissociation and run until the binding signal plateaued. KD values were obtained through steady state analysis. Briefly, the data were corrected for background by subtracting the signal obtained when doing the same experiment using a biotinylated, 6×-His Sumo instead of an immobilized ENAH-binding peptide. The association phases were then fit to a one-phase binding model in Prism and the equilibrium steady-state binding signal values from that fit were plotted against ENAH concentration and fit to a single-site specific binding model in Prism to obtain dissociation constants. Errors reported are the standard deviation of two replicates. […]

Assay [3] concerns the target T1, ENAH EVH1 domain (Homo sapiens, UniProt Q8N8S7).
T1 construct: places a 6×-His and TEV cleavage tag N-terminal to the EVH1 domain; 6×-His + TEV cleavage site (N, cleaved yes); made in house; host or cells: E. coli Rosetta2(DE3)
The assay is described as follows: Biolayer interferometry (BLI), SUMO-peptide fusions binding monomeric ENAH EVH1 domain WT. As to the method:
All BLI experiments were performed with 2 replicates on an Octet Red96 instrument (ForteBio). […] The loaded tips were immersed in a solution of ENAH EVH1 domain at a relevant dilution series in BLI buffer at an orbital shake speed of 1000 rpm and run until the binding signal plateaued. ENAH-bound tips were subsequently placed into BLI buffer only for dissociation and run until the binding signal plateaued. KD values were obtained through steady state analysis. […] The association phases were then fit to a one-phase binding model in Prism and the equilibrium steady-state binding signal values from that fit were plotted against ENAH concentration and fit to a single-site specific binding model in Prism to obtain dissociation constants. Errors reported are the standard deviation of two replicates.
Monomeric ENAH, EVL, or VASP EVH1 domains for use in BLI and ITC experiments, or ENAH EVH1-peptide fusions for crystallography was cloned into a pMCSG7 vector (gift from Frank Gertler, MIT), which places a 6×-His and TEV cleavage tag N-terminal to the EVH1 domain. These constructs were transformed into Rosetta2(DE3) cells and grown in 2×YT media supplemented with 100 μg/mL ampicillin. Cells were grown while shaking at 37° C. to an O.D. 600 of 0.5-0.7, and then cooled on ice for at least 20 minutes. They were then induced with 0.5 mM IPTG and grown while shaking at 18° C. overnight. Induced cultures were resuspended in 25 mL of wash buffer (20 mM Hepes pH 7.6, 500 mM NaCl, 20 mM imidazole) and frozen at −80° C. overnight. The next day, cultures were sonicated, spun down, and applied to Ni-NTA acid agarose resin equilibrated with wash buffer, and washed as described above. Samples were eluted in 10 mL elution buffer (20 mM Hepes pH 7.6, 500 mM NaCl, […]). TEV protease was added to the elution at a ratio of 1 mg TEV:50 mg tagged protein along with 1 mM DTT. This mixture was dialyzed against TEV cleavage buffer (50 mM Hepes pH 8.0, 300 mM NaCl, 5 mM DTT, 1 mM EDTA) at 4° C. overnight and then applied over Ni-NTA acid agarose resin equilibrated with wash buffer. The column was washed with 2×8 mL of wash buffer, and the resulting flow-through and washes were pooled, concentrated, and applied to an S75 26/60 column equilibrated in gel filtration buffer (20 mM Hepes pH 7.6, 150 mM NaCl, 1 mM DTT, 1% glycerol). Purity was verified by SDS-PAGE and combined fractions were concentrated and flash frozen at −80° C.
Rosetta2(DE3) cells (Novagen) were transformed with pDW363 vector encoding 6×-His-SUMO-peptide fusions and grown in 20 mL of LB+100 μg/mL Ampicillin+0.050 mM D-(+)-Biotin dissolved in DMSO for in vivo biotinylation. Cells were grown to an OD of 0.5-0.7 with 1 mM IPTG and induced for 4-6 hours at 37° C. Pellets were spun down and frozen and −80° C. for at least 2 hours. These pellets were then thawed and resuspended in B-PER reagent (ThermoFisher) at 4 mL/gram of pellet with 0.2 mM PMSF. This suspension was shaken at 25° C. for 10-15 minutes, and then spun down at 15,000 g for 10 minutes. The supernatant was applied to 250 μL of Ni-NTA acid agarose resin equilibrated in 20 mM Tris pH 8.0, 500 mM NaCl, 20 mM Imidazole (Buffer A), and then washed 3 times with 1 mL of this buffer. Peptides were eluted in 1.8 mL of 20 mM Tris pH 8.0, 500 mM NaCl, 300 mM imidazole to use in BLI assays.

T1 sequence (Q8N8S7 with tags, fused parts or gaps): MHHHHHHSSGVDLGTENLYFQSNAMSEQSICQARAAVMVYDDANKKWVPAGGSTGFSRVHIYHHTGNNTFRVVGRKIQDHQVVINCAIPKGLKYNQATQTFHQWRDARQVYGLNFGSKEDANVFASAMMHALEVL

In the case of `CSCC[C@H](NC(=O)[C@H](CC(C)C)NC(=O)[C@@H](NC(=O)[C@H](CCC(=O)O)NC(=O)[C@H](CCSC)NC(=O)[C@@H]1CCCN1C(=O)[C@@H]1CCCN1C(=O)[C@@H]1CCCN1C(=O)[C@@H]1CCCN1C(=O)[C@H](CC(C)C)NC(=O)[C@H](Cc1c[nH]cn1)NC(=O)[C@H](CCC(=O)O)NC(=O)[C@H](CC(C)C)NC(=O)[C@@H](N)CC(N)=O)C(C)C)C(=O)N[C@@H](CC(=O)O)C(=O)N[C@@H](CCCCN)C(=O)N[C@@H](CO)C(=O)N[C@@H](Cc1ccccc1)C(=O)N[C@@H](C)C(=O)N[C@@H](CO)C(=O)N[C@@H](CC(C)C)C(=O)N[C@@H](CCC(=O)O)C(=O)N[C@@H](CO)C(=O)O` [PCARE B], the “binding to EVL Y63C, I26A and VASP W89Y, L15V, in words” value in assay [1] was “not sufficient to confer high affinity of binding”.

In the case of `CSCC[C@H](NC(=O)[C@H](CC(C)C)NC(=O)[C@@H](NC(=O)[C@H](CCC(=O)O)NC(=O)[C@H](CCSC)NC(=O)[C@@H]1CCCN1C(=O)[C@@H]1CCCN1C(=O)[C@@H]1CCCN1C(=O)[C@@H]1CCCN1C(=O)[C@H](CC(C)C)NC(=O)[C@H](Cc1c[nH]cn1)NC(=O)[C@H](CCC(=O)O)NC(=O)[C@H](CC(C)C)NC(=O)[C@@H](N)CC(N)=O)C(C)C)C(=O)N[C@@H](CC(=O)O)C(=O)N[C@@H](CCCCN)C(=O)N[C@@H](CO)C(=O)N[C@@H](Cc1ccccc1)C(=O)N[C@@H](C)C(=O)N[C@@H](CO)C(=O)N[C@@H](CC(C)C)C(=O)N[C@@H](CCC(=O)O)C(=O)N[C@@H](CO)C(=O)NCC(=O)N[C@@H](CO)C(=O)NCC(=O)N[C@@H](CO)C(=O)N1CCC[C@H]1C(=O)N1CCC[C@H]1C(=O)N1CCC[C@H]1C(=O)N1CCC[C@H]1C(=O)N1CCC[C@H]1C(=O)N[C@@H](Cc1ccccc1)C(=O)O` [PCARE-Dual], the “preference / selectivity for ENAH over VASP or EVL EVH1 domains” value in assay [2] is given as 400-600 fold. The “tighter binding than PCARE B” value in assay [3] is around 7 fold. In addition, the “slower dissociation than dual-motif peptide LPP” value in assay [3] (BLI off-rate) is around 100 fold.
